In patent US4957911A, “Benzazecine derivatives for cognitive and memory functions” (Hoffmann-La Roche Inc., priority 1986, dated 1990):

What was measured:
[1] = Acute toxicity, single oral administration to mice (LD50); conditions: mouse, in vivo
Source text: Moreover, the Table contains data for the acute toxicity (LD50 in mg/kg in the case of single oral administration to mice).

rats = assay: Passive avoidance in Skinner box: reversal of scopolamine-induced blocking of short-time memory; format: in vivo, rat; conditions: scopolamine 0.3 mg/kg i.p. and distilled water p.o.
Source text: The test apparatus is a "Skinner box" with an electrifiable grid floor (30×40 cm) and a grey plastic platform (15×15×0.8 cm) in the front right corner. Untrained male rats (100-120 g) are placed individually on the platform. As soon as they climb down on to the grid floor they receive a mild electric foot-shock (0.8 mA). The normal reaction of untrained rats is to climb back on to the platform. The foot-shock procedure must be repeated three to five times for each animal, after which the rats have acquired a "passive avoidance response", that is, they no longer attempt to descend from the platform to the grid floor.
Immediately thereafter three groups, each comprising 30 animals, are set up. The first group receives an injection (i.p.) of 0.3 mg/kg of scopolamine as well as distilled water (2 ml/kg p.o.). The second group receives an injection (i.p.) of 0.3 mg/kg of scopolamine and an oral dosage of the test substance. The third group receives only distilled water (p.o.).
Two hours later, each rat is placed once on the platform in the "Skinner box". […] The statistical significance of the difference between the results obtained in the first and in the second groups is determined by means of the Chi-Square test.
70-75% of the animals treated only with distilled water (p.o.) still remember 2-4 hours after learning the "passive avoidance response" that they should remain on the platform. […]

Row | Compound | LD50 [1] [mg/kg] | animals with retrograde effect on the short-time memory (rats) | duration of retrograde effect on the short-time memory (rats) [h]
1 | CC(=O)N1CCCC(=O)c2ccc(F)cc2CCC1=O [I H H F H COCH3, 4-acetyl-11-fluoro-1,2,4,5,6,7-hexahydro-4-benzazecine-3,8-dione] | > 5000 | – | –
2 | CC(=O)N1CCCC(=O)c2c(Cl)cccc2CCC1=O [I Cl H H H COCH3, 4-acetyl-9-chloro-1,2,4,5,6,7-hexahydro-4-benzazecine-3,8-dione] | > 5000 | – | –
3 | CC(=O)N1CCCC(=O)c2ccc(Cl)cc2CCC1=O [I H H Cl H COCH3, 4-acetyl-11-chloro-1,2,4,5,6,7-hexahydro-4-benzazecine-3,8-dione] | > 5000 | – | –
4 | CC(=O)N1CCCC2=C1CCc1cc(Cl)ccc12 [II H H Cl H COCH3, 4-acetyl-8-chloro-1,2,3,4,5,6-hexahydrobenzo[f]quinoline] | 2500 to 5000 | – | –
5 | CN1[C@@H]2C[C@@H](OC(=O)[C@H](CO)c3ccccc3)C[C@H]1[C@@H]1O[C@@H]12 [scopolamine] | – | 85-92% | 3 to 4
6 | CC(=O)N1CCCC(=O)c2c(Cl)cc(Cl)cc2CCC1=O [I Cl H Cl H COCH3, 4-acetyl-9,11-dichloro-1,2,4,5,6,7-hexahydro-4-benzazecine-3,8-dione] | > 5000 | – | –
